Measured values from patent US11058650B2, “Fatty acid amides for the prevention and/or treatment of steatohepatitis” (FUNDACIÓN RÚBLICA ANDALUZA PARA LA INVESTIGACIÓN DE MÁLAGA …, priority 2014, dated 2021).
Values joined by “and” are separate entries in the source; they are usually repeats but may differ in a detail not shown here. Identical values can stand only once. Like-named read-outs stand apart in the source and are kept apart here.

Legend:
[1] = Body weight gain and food intake in Zucker rats, chronic treatment; format: in vivo, rat; conditions: 5 mg/kg i.p. daily 15 days
Protocol: (§1) All the experiments were carried out in obese (fa/fa) and thin (Fa/?) male Zucker rats 8-9 weeks of age. The animals were placed in individual cages in a room with controlled temperature, humidity and lighting (light/darkness cycles of 12 hours), and with free access to food and water (standard laboratory diet).
(§2) OLHHA was dissolved in a vehicle containing 5% Tween 80 in saline and intraperitoneally (i.p.) administered at a dose of 5 mg/kg (volume of 1 ml/kg body weight) at the beginning of the light cycle (9:00 am-10:00 am) for 15 consecutive days. Two hours after the last injection, the animals were euthanized using sodium pentobarbital (50 mg/kg, i.p.) and blood and liver samples were extracted. The blood was centrifuged at 2100×g for 8 minutes at 4° C. and the obtained plasma was kept at −80° C. for subsequent analysis. The liver samples were also stored at −80° C.
Animals received an injection (i.p.) of vehicle or OLHHA (5 mg/kg) daily for 15 consecutive days. For this experiment, 8 rats were used per group. The total body weight gain (g) and the accumulated food intake (g/kg of body weight) were evaluated daily.

[2] = system: Zucker rats; assay: Liver fat content and plasma triglyceride level of Zucker rats; format: in vivo, rat; conditions: obese Zucker rats, 5 mg/kg once a day 15 days
Protocol: as §1, §2
The total liver fat content and the plasma triglyceride level were evaluated in thin and obese Zucker rats after a 15-day treatment with OLHHA (5 mg/kg, once a day). The samples for lipid analysis were obtained 2 hours after the last injection.
The Bligh & Dyer method (Bligh and Dyer, 1959) was followed for liver fat quantification. […] The fat content was expressed as % of tissue weight. […]

[3] = system: obese rats; assay: Hepatic serum transaminase level in obese rats; format: in vivo, rat; conditions: 5 mg/kg i.p. 15 days
Protocol: as §1, §2
Commercial kits were used for determining hepatic serum transaminases and they were analyzed in a Hitachi 737 automatic biochemistry analyzer.

[4] = system: obese rats; assay: Circulating pro-inflammatory cytokine level in obese rats (ELISA); format: in vivo, rat; conditions: 5 mg/kg i.p. 15 days
Protocol: as §1, §2
Circulating IL-6 and TNF-α levels were measured by means of ELISAs using commercial kits (Abcam).

[5] = system: obese rats; assay: Kidney function-related plasma protein level in obese rats; format: in vivo, rat; conditions: 5 mg/kg i.p. 15 days
Protocol: as §1, §2
Commercial kits were used for determining serum creatinine and urea and they were analyzed in a Hitachi 737 automatic biochemistry analyzer.

[6] = system: liver of Zucker rats; assay: Gene expression (RT-qPCR) in the liver of Zucker rats; format: in vivo, rat
Protocol: as §1, §2
For isolating total RNA from the liver, the samples were homogenized in Trizol and then purified using Qiagen RNeasy Minelute Cleanup Kit (selectively eliminates most molecules smaller than 200 nucleotides), also including a DNAse treatment. The total mRNA concentration was quantified using a spectrophotometer. In all the cases, the A260/280 ratio was between 1.8 and 2. Complementary DNA synthesis was carried out by reverse transcription using the Transcriptor Reverse Transcriptase kit (Transcriptor RT, Roche Diagnostic). For real-time PCR (RT-qPCR), an ABI PRISM® 7300 Real-Time PCR System (Applied Biosystems) and TaqMan probes were used. The single-product amplification was confirmed by means of analyzing the melting curves. The values of each sample were normalized with respect to the beta-actin constitutive gene. The relative quantification was calculated by means of the ΔΔCt method and normalized to the control group. The Taqman probes were obtained from the rat genome database of Applied Biosystems (http://bioinfo.appliedbiosystems.com/genome-database/gene-expression.html): […]

[7] = target: T1, hERG channel (Homo sapiens, UniProt Q12809); assay: hERG channel functional assay (FluxOR thallium fluorescence); format: cell-based; conditions: HEK-293 cells expressing hERG
T1 construct: expressed in transfected cells; host or cells: HEK293
Protocol: The hERG channel assay was used to identify if OLHHA may cause cardiotoxicity (FIG. 8). […] FluxOR™ is protected by AM groups which prevent fluorescence outside the cell. When it enters the cell, esterases in the cytosol remove the AM groups, and FluxOR™ will be converted to its active form in which it is capable of binding to thallium, which moves into the cytoplasm through the hERG channel, resulting in the emission of fluorescence. HEK293 cells expressing the hERG channel were seeded in poly-D-lysine-treated, black 96-well plates and incubated for 24 hours. […] Next, 20 μl of FluxOR™ dissolved in the assay buffer were added. The fluorochrome was incubated with the cells for 1 hour at room temperature. Next, the plates were washed with 50 μl of assay buffer and the compound OLHHA at a dilution of 1:200 (2 μl of OLHHA/400 μl of assay buffer) was added using an EP3 station. […] The plates were incubated with OLHHA for 30 minutes and then read in a […], which added 5 μl of stimulation buffer (Tl2SO4+K2SO4), and read the fluorescence for 120 s, which allowed analyzing channel kinetics.

[8] = target: CYP2C9 (Homo sapiens, UniProt P11712); assay: P450 cytochrome inhibition fluorometric assay CYP2C9; format: in vitro ADME
Protocol: However, most human CYPs tolerate acetonitrile. […] OLHHA was tested in triplicate.

[9] = system: liver of obese Zucker rats; assay: Histological evaluation of fatty liver and Caspase-3 in obese Zucker rats; format: in vivo, rat
Protocol: as §1, §2
The histological analysis of the livers of obese Zucker rats treated with the vehicle or with OLHHA confirmed the biochemistry total fat quantification results.

[10] = system: liver of obese Zucker rats; assay: Protein levels of lipid metabolism enzymes in the liver of obese Zucker rats; format: in vivo, rat; conditions: change seen in mRNA (reduction)
Protocol: as §1, §2

[11] = target: CYP3A4 (Homo sapiens, UniProt P08684); assay: biochemical
[12] = target: CYP2D6 (Homo sapiens, UniProt P10635); assay: biochemical
[13] = obese Zucker rats liver, immunohistochemistry
[14] = obese Zucker rats, chronic treatment, vs vehicle

Sequence of CYP2C9 (P11712 whole entry): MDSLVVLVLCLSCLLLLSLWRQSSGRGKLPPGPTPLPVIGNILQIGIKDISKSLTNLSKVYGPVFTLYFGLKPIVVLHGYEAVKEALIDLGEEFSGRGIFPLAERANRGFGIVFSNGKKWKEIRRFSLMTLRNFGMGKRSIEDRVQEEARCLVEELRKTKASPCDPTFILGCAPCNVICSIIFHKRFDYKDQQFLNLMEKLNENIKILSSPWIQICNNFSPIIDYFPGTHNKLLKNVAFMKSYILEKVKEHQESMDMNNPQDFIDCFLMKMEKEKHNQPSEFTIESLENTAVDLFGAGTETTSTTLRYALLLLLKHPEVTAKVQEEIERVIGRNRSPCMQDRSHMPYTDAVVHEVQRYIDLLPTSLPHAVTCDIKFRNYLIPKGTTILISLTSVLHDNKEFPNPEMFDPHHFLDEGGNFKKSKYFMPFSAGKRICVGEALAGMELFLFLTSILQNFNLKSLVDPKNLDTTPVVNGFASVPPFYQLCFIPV
Sequence of CYP3A4 (P08684 whole entry): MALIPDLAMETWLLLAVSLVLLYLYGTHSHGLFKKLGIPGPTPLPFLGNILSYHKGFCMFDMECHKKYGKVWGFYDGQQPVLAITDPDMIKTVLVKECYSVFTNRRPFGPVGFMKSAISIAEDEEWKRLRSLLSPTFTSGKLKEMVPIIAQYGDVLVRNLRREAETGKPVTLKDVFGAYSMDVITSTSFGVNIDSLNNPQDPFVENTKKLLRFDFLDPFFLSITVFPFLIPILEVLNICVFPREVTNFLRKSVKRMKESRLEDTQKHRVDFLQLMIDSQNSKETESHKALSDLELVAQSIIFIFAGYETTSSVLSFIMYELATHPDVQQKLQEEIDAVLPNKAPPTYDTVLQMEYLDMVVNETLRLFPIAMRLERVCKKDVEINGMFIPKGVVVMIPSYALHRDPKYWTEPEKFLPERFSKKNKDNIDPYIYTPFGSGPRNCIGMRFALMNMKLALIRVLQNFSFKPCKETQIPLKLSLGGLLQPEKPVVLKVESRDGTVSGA
T1 sequence (Q12809 whole entry): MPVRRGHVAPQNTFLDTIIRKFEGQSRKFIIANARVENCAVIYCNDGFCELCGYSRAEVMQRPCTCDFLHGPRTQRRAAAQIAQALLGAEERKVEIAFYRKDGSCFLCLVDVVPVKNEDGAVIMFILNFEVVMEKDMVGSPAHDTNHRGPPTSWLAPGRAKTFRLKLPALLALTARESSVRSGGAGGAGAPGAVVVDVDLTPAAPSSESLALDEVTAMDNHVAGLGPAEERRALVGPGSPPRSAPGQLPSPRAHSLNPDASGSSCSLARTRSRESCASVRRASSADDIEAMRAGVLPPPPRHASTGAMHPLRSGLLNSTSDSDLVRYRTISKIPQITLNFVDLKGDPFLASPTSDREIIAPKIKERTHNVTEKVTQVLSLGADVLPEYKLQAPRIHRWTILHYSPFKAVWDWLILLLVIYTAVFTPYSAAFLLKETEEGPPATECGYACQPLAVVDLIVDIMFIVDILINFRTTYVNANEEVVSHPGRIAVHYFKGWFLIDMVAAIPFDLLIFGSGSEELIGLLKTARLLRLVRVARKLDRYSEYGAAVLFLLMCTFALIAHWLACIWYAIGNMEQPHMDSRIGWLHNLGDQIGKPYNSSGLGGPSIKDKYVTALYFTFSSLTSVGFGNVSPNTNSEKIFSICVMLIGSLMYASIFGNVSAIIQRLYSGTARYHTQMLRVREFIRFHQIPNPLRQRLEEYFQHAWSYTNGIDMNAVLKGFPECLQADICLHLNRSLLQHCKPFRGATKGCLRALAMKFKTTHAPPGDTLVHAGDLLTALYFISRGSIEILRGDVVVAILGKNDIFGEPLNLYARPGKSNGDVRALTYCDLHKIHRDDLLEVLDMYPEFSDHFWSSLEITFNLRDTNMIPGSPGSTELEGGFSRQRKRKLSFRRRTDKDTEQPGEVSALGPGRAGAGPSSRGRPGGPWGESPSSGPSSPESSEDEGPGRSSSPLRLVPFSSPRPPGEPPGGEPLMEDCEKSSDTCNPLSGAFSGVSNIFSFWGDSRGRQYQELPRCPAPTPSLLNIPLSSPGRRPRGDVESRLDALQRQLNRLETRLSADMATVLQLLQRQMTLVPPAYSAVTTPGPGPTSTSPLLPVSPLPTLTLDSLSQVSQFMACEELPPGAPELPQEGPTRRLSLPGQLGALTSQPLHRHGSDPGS
Sequence of CYP2D6 (P10635 whole entry): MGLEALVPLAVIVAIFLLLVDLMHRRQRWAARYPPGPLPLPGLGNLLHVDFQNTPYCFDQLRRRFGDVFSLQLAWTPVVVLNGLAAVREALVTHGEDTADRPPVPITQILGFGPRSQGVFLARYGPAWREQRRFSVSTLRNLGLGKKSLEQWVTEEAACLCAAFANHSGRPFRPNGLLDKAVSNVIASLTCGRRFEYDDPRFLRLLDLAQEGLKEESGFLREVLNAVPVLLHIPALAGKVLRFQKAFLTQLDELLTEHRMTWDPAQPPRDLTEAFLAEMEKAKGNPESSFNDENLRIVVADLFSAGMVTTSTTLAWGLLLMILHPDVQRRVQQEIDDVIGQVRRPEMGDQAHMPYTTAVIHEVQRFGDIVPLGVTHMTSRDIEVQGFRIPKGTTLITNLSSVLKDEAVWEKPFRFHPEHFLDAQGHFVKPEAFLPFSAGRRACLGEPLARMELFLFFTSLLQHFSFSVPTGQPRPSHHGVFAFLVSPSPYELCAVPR

In the case of `CCCCCCCC/C=C\CCCCCCCC(=O)NC(C)Cc1ccc(O)c(O)c1` (stereo not shown) [OLHHA, N-(1-(3,4-dihydroxyphenyl)propan-2-yl)oleamide], the accumulated food intake ([1]; obese Zucker rats) is reported as “did not cause any effect”, the body weight gain ([1]; obese Zucker rats) is reported as “did not cause any effect” and the accumulated food intake ([1]; thin Zucker rats, starting on the fifth day, vs vehicle) is reported as “significant reduction”. For the same compound, the body weight gain ([1]; thin Zucker rats, vs vehicle) was “significant inhibition”, the circulating triglycerides ([2]; five-fold increase in obese vs thin) was “prevented these increases” and the “total liver fat content” value ([2]; three-fold increase in obese vs thin) was “prevented these increases”. For the same compound, the “aspartate aminotransferase (AST) level” value ([3]; not statistically significant) was “reduction”, the “alanine aminotransferase (ALT) level” value ([3]; statistically significant (p<0.05)) was “reduction” and the “gamma-glutamyl transpeptidase (GGt)” value ([3]; vs vehicle) was “no effect was observed”. The “plasma IL6 levels” value [4] was “no changes were detected”, the TNF-α level ([4]; did not reach a degree of significance) was “drop” and the creatinine levels [5] was “did not affect”. For the same compound, the urea levels ([5]; vs vehicle, p<0.001) was “significant reduction”, the “ACOX mRNA expression” value ([6]; 5 mg/kg i.p. 15 days) was “significant increase” and the “FAS mRNA expression (fatty acid biosynthesis)” value ([6]; 5 mg/kg i.p. 15 days) was “significant reduction”. The “HMG-CoAR mRNA expression (cholesterol biosynthesis)” value ([6]; 5 mg/kg i.p. 15 days) was “significant reduction”, the “INSIG2 mRNA expression” value ([6]; 5 mg/kg i.p. 15 days) was “significantly increased” and the “NAPE-PLD mRNA expression” value ([6]; 5 mg/kg i.p. 15 days) was “significantly reduced”. For the same compound, the “L-FABP mRNA level” value ([6]; chronic treatment) was “increased”, the IC50 ([7]; maximum concentration 150 μM) was greater than 150 µM and the IC50 ([8]; degree of inhibition, read-out: CYP2C9 Inhibitor category) was 1 to 10 µM. For the same compound, the IC50 ([8]; fluorometric assay, maximum dose 105 μM, read-out: CYP2C9 IC50) was 6.8 µM, the “expression of activated Caspase-3” value [9, 13] was “reduced the expression” and the “expression of total Caspase-3” value [9, 13] was “reduced the expression”. For the same compound, the “apoptotic activity in liver” value [9, 14] was “reduction in apoptotic activity”, the “liver fat content (hematoxylin-eosin and oil red staining)” value [9, 14] was “reduction in liver fat content” and the “FAS protein expression level” value [10] was “confirmed at the protein expression level”. The “HMG-CoAR protein expression level” value [10] was “confirmed at the protein expression level”, the IC50 [11] was 14.8 µM and > 10 µM and the IC50 [12] was 23.3 µM and > 10 µM.

Work on `CC(C)COCC(CN(Cc1ccccc1)c1ccccc1)N1CCCC1` (stereo not shown) [bepridil, reference compound] yielded an IC50 at 30 min ([7]; human, HEK293 cells expressing the hERG channel, pH 7.4, probe FluxOR fluorescent dye / thallium ions, standard control inhibitors, unit M) of 2.2 µM.
